The test system of assay [1] is MOLP-8 human multiple myeloma cell line. The experiment in a line: Caspase-Glo 3/7 apoptosis induction assay in MOLP-8 cells. The settings on record: Homo sapiens, MOLP-8, 2 h, caspase-3/7 activity, 2 hours at 37° C.; averaged over all runs on all batches; read-out: MOLP8 AC50. The format is cell-based. An excerpt:
MCL-1 is a regulator of apoptosis and is highly over-expressed in tumor cells that escape cell death. The assay evaluates the cellular potency of small-molecule compounds targeting regulators of the apoptosis pathway, primarily MCL-1, Bfl-1, Bcl-2, and other proteins of the Bcl-2 family. Protein-protein inhibitors disrupting the interaction of anti-apoptotic regulators with BH3-domain proteins initiate apoptosis.
The Caspase-Glo® 3/7 Assay is a luminescent assay that measures caspase-3 and −7 activities in purified enzyme preparations or cultures of adherent or suspension cells. The assay provides a proluminescent caspase-3/7 substrate, which contains the tetrapeptide sequence DEVD. This substrate is cleaved to release aminoluciferin, a substrate of luciferase used in the production of light. Addition of the single Caspase-Glo® 3/7 Reagent in an “add-mix-measure” format results in cell lysis, followed by caspase cleavage of the substrate and generation of a “glow-type” luminescent signal.
This assay uses the MOLP-8 human multiple myeloma cell line, which is sensitive to MCL-1 inhibition.
Cell cultures were maintained between 0.2 and 2.0×10^6 cells/mL. The cells were harvested by collection in 50 mL conical tubes. The cells were then pelleted at 500 g for 5 mins before removing supernatant and resuspension in fresh pre-warmed culture medium. The cells were counted and diluted as needed.
The assay reagent was prepared by transferring the buffer solution to the substrate vial and mixing. The solution may be stored for up to 1 week at 4° C. with negligible loss of signal.
Compounds were delivered in assay-ready plates (Proxiplate) and stored at −20° C. Assays always include 1 reference compound plate containing reference compounds. The plates were spotted with 40 nL of compounds (0.5% DMSO final in cells; serial dilution; […] highest conc. 1/3 dilution, 10 doses, duplicates). The compounds were used at room temperature and 4 μL of pre-warmed media was added to all wells except column 2 and 23. The negative control was prepared by adding 1% DMSO in media. The positive control was prepared by adding the appropriate positive control compound in final concentration of […] in media. The plate was prepared by adding 4 μL negative control to column 23, 4 μL positive control to column 2 and 4 μL cell suspension to all wells in the plate. The plate with cells was then incubated at 37° C. for 2 hours. The assay signal reagent is the Caspase-Glo solution described above, and 8 μL was added to all wells. The plates were then sealed and measured after 30 minutes.
The activity of a test compound was calculated as percent change in apoptosis induction as follows:
% Effect (AC50)=100−(sample-LC)/(HC-LC)*100
% Control=(sample/HC)*100
% Control min=(sample-LC)/(HC-LC)*100

Assay [2] concerns the target Myeloid Cell Leukemia 1(Mcl-1) (Homo sapiens, UniProt Q07820). Description: Terbium labeled Mcl-1 HTRF binding assay with Cy5-labeled BIM BH3 peptide. The conditions noted are these: displacement of Cy5 Bim BH3 peptide; Ki=IC50/(1+[L]/Kd), [L]=8 nM, Kd=10 nM; 60 minutes at room temperature; read-out: Tb-MCL1 Ki. As to the method:
Terbium labeled Myeloid Cell Leukemia 1(Mcl-1) homogeneous time-resolved fluorescence (HTRF) binding assay utilizing the BIM BH3 peptide (H2N—(C/Cy5Mal) WIAQELRRIGDEFN-OH) as the binding partner for Mcl-1.
This assay evaluated inhibition of the BH3 domain: Mcl-1 interaction by measuring the displacement of Cy5-labeled BIM BH3 peptide (H2N—(C/Cy5Mal) WIAQELRRIGDEFN-OH) in the HTRF assay format.
The following assay and stock buffers were prepared for use in the assay: (a) Stock buffer: 10 mM Tris-HCl, pH=7.5+150 mM NaCl, filtered, sterilized, and stored at 4° C.; and (b) 1X assay buffer, where the following ingredients were added fresh to stock buffer: 2 mM dithiothreitol (DTT), 0.0025% Tween-20, 0.1 mg/mL bovine serum albumin (BSA). The 1X Tb-Mcl-1+Cy5 Bim peptide solution was prepared by diluting the protein stock solution using the 1X assay buffer (b) to 25 pM Tb-Mcl-1 and 8 nM Cy5 Bim peptide.
Using the Acoustic ECHO, 100 nL of 100x test compound(s) were dispensed into individual wells of a white 384-well Perkin Elmer Proxiplate, for a final compound concentration of 1× and final DMSO concentration of 1%. Inhibitor control and neutral control (NC, 100 nL of 100% DMSO) were stamped into columns 23 and 24 of assay plate, respectively. Into each well of the plate was then dispensed 10 μL of the 1X Tb-Mcl-1+Cy5 Bim peptide solution. The plate was centrifuged with a cover plate at 1000 rpm for 1 minute, then incubated for 60 minutes at room temperature with plates covered.
The TR-FRET signal was read on an BMG PHERAStar FSX MicroPlate Reader at room temperature using the HTRF optic module (HTRF: excitation: 337 nm, light source: laser, emission A: 665 nm, emission B: 620 nm, integration start: 60 μs, integration time: […]).
The BMG PHERAStar FSX MicroPlate Reader was used to measure fluorescence intensity at two emission wavelengths—665 nm and 620 nm—and report relative fluorescence units (RFU) for both emissions, as well as a ratio of the emissions (665 nm/620 nm)*10,000. The RFU values were normalized to percent inhibition as follows:
% inhibition=(((NC−IC)−(compound−IC))/(NC−IC))*100
where IC (inhibitor control, low signal)= mean signal of 1X Tb-MCl-1+Cy5 Bim peptide+inhibitor control or 100% inhibition of Mcl-1; NC (neutral control, high signal)= mean signal 1X Tb-MCl-1+Cy5 Bim peptide with DMSO only or 0% inhibition An 11-point dose response curve was generated to determine IC50 values (using GenData) based on the following equation:
Y=Bottom+(Top−Bottom)/(1+10∧((log IC50−X)*HillSlope))
where Y=% inhibition in the presence of X inhibitor concentration; Top=100% inhibition derived from the IC (mean signal of Mcl-1+inhibitor control); Bottom=0% inhibition derived from the NC (mean signal of Mcl-1+DMSO); Hillslope=Hill coefficient; and IC50=concentration of compound with 50% inhibition in relation to top/neutral control (NC).
In this assay [L]=8 nM and Kd=10 nM

SMILES strings stand for the structures.

Myeloid Cell Leukemia 1(Mcl-1), sequence (Q07820 whole entry): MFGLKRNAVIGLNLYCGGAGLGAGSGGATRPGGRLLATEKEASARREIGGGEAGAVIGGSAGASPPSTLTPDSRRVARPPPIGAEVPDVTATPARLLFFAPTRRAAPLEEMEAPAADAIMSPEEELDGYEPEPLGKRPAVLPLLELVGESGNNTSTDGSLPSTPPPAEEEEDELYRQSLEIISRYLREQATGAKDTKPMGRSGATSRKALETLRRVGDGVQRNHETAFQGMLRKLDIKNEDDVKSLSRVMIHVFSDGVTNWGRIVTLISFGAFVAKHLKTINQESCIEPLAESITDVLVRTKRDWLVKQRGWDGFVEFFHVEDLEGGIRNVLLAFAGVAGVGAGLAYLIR

As to `C[C@@H]1[C@@H](C)C/C=C(\F)[C@H](C(=O)N(C)CC2CCOCC2)N2CCC[C@H]2CN2C[C@@]3(CCCc4cc(Cl)ccc43)COc3ccc(cc32)C(=O)NS1(=O)=O` [Compound 22], the AC50 in assay [1] is 56.7 nM. Further, the Ki in assay [2] was determined as 0.047 nM.
`C[C@@H]1CN(C(=O)[C@H]2/C(F)=C/C[C@H](C)[C@@H](C)S(=O)(=O)NC(=O)c3ccc4c(c3)N(C[C@@H]3CCCN32)C[C@@]2(CCCc3cc(Cl)ccc32)CO4)CCN1C` [Compound 23]: the AC50 in assay [1] turned out to be 101 nM. Also, the Ki in assay [2] was found to be 0.054 nM.
For the compound `C[C@@H]1[C@@H](C)C/C=C(\F)[C@H](C(=O)N2CCN(C)[C@@H](C)C2)N2CCC[C@H]2CN2C[C@@]3(CCCc4cc(Cl)ccc43)COc3ccc(cc32)C(=O)NS1(=O)=O` [Compound 24], the half-maximal activity concentration (AC50) in assay [1] worked out at 151 nM. Moreover, the Ki in assay [2] is 0.068 nM.
`COC1CN(C(=O)[C@H]2/C(F)=C/C[C@H](C)[C@@H](C)S(=O)(=O)NC(=O)c3ccc4c(c3)N(C[C@@H]3CCCN32)C[C@@]2(CCCc3cc(Cl)ccc32)CO4)C1` [Compound 25]: the AC50 in assay [1] worked out at 154 nM. In assay [2], the Ki came to 0.072 nM.
`C[C@@H]1[C@@H](C)C/C=C(\F)[C@H](C(=O)N2CCOC3(CCC3)C2)N2CCC[C@H]2CN2C[C@@]3(CCCc4cc(Cl)ccc43)COc3ccc(cc32)C(=O)NS1(=O)=O` [Compound 26]: in assay [1], the AC50 is 153 nM. Further, the Ki in assay [2] was found to be 0.115 nM.
On to `C[C@@H]1[C@@H](C)C/C=C(\F)[C@H](C(=O)N(C)CCO)N2CCC[C@H]2CN2C[C@@]3(CCCc4cc(Cl)ccc43)COc3ccc(cc32)C(=O)NS1(=O)=O` [Compound 27], for which the AC50 in assay [1] amounted to 396 nM. The inhibitory constant (Ki) in assay [2] was 0.054 nM.
As to `C[C@@H]1[C@@H](C)C/C=C(\F)[C@H](C(=O)N(C)c2ccccc2)N2CCC[C@H]2CN2C[C@@]3(CCCc4cc(Cl)ccc43)COc3ccc(cc32)C(=O)NS1(=O)=O` [Compound 28], the AC50 in assay [1] was 302 nM. Moreover, the Ki in assay [2] amounted to 0.465 nM.
With `C[C@@H]1[C@@H](C)C/C=C(\F)[C@H](C(=O)N2CCCC3(C2)CC3(F)F)N2CCC[C@H]2CN2C[C@@]3(CCCc4cc(Cl)ccc43)COc3ccc(cc32)C(=O)NS1(=O)=O` (stereo partly drawn) [Compound 29], in assay [1], the AC50 was found to be 408 nM. Further, in assay [2], the Ki stood at 0.494 nM.
Take `C[C@@H]1[C@@H](C)C/C=C(\F)[C@H](C(=O)N(C)CC(F)(F)F)N2CCC[C@H]2CN2C[C@@]3(CCCc4cc(Cl)ccc43)COc3ccc(cc32)C(=O)NS1(=O)=O` [Compound 30]: in assay [1], the AC50 was 351 nM. Further, the Ki in assay [2] amounted to 0.379 nM.
Take `CC(C)N(C)C(=O)[C@H]1/C(F)=C/C[C@H](C)[C@@H](C)S(=O)(=O)NC(=O)c2ccc3c(c2)N(C[C@@H]2CCCN21)C[C@@]1(CCCc2cc(Cl)ccc21)CO3` [Compound 31]: the AC50 in assay [1] is 238 nM. The Ki in assay [2] stood at 0.105 nM.
As to `C[C@@H]1[C@@H](C)C/C=C(\F)[C@H](C(=O)N2CCC3(CCCCC3)C2)N2CCC[C@H]2CN2C[C@@]3(CCCc4cc(Cl)ccc43)COc3ccc(cc32)C(=O)NS1(=O)=O` [Compound 32], the AC50 in assay [1] stood at 478 nM. Further, in assay [2], the Ki turned out to be 0.603 nM.
Consider `C[C@@H]1[C@@H](C)C/C=C(\F)[C@H](C(=O)N(C)Cc2ccnn2C)N2CCC[C@H]2CN2C[C@@]3(CCCc4cc(Cl)ccc43)COc3ccc(cc32)C(=O)NS1(=O)=O` [Compound 34], for which the AC50 in assay [1] turned out to be 76.9 nM. The Ki in assay [2] stood at 0.077 nM.
As to `C[C@@H]1[C@@H](C)C/C=C(\F)[C@H](C(=O)N(C)CCOC2CCOCC2)N2CCC[C@H]2CN2C[C@@]3(CCCc4cc(Cl)ccc43)COc3ccc(cc32)C(=O)NS1(=O)=O` [Compound 35], in assay [1], the AC50 stood at 90.1 nM. The Ki in assay [2] came to 0.066 nM.
With `C[C@@H]1[C@@H](C)C/C=C(\F)[C@H](C(=O)N2CC(C(F)(F)F)C2)N2CCC[C@H]2CN2C[C@@]3(CCCc4cc(Cl)ccc43)COc3ccc(cc32)C(=O)NS1(=O)=O` [Compound 36], the AC50 in assay [1] was determined as 399 nM. The Ki in assay [2] amounted to 0.325 nM.
As to `COCCCN(CCCOC)C(=O)[C@H]1/C(F)=C/C[C@H](C)[C@@H](C)S(=O)(=O)NC(=O)c2ccc3c(c2)N(C[C@@H]2CCCN21)C[C@@]1(CCCc2cc(Cl)ccc21)CO3` [Compound 37], the AC50 in assay [1] worked out at 49.5 nM. Moreover, the Ki in assay [2] turned out to be 0.061 nM.
In the same order, the values of `COCCN1CCN(C(=O)[C@H]2/C(F)=C/C[C@H](C)[C@@H](C)S(=O)(=O)NC(=O)c3ccc4c(c3)N(C[C@@H]3CCCN32)C[C@@]2(CCCc3cc(Cl)ccc32)CO4)CC1` [Compound 38] are 187 nM and 0.051 nM.
For `COCCN(CCOC)C(=O)[C@H]1/C(F)=C/C[C@H](C)[C@@H](C)S(=O)(=O)NC(=O)c2ccc3c(c2)N(C[C@@H]2CCCN21)C[C@@]1(CCCc2cc(Cl)ccc21)CO3` [Compound 39], in assay [1], the AC50 was determined as 19.7 nM. Moreover, the Ki in assay [2] was found to be 0.081 nM.
As for `C[C@@H]1[C@@H](C)C/C=C(\F)[C@H](C(=O)N(C)Cc2ccn(C)n2)N2CCC[C@H]2CN2C[C@@]3(CCCc4cc(Cl)ccc43)COc3ccc(cc32)C(=O)NS1(=O)=O` [Compound 40], in assay [1], the AC50 is 138 nM. Besides, in assay [2], the Ki came out at 0.623 nM.
For `C[C@@H]1[C@@H](C)C/C=C(\F)[C@H](C(=O)N(C)CCOc2cncnc2)N2CCC[C@H]2CN2C[C@@]3(CCCc4cc(Cl)ccc43)COc3ccc(cc32)C(=O)NS1(=O)=O` [Compound 41] the same measures were 99.1 nM and 0.034 nM.
As for `COC1(C(F)(F)F)CN(C(=O)[C@H]2/C(F)=C/C[C@H](C)[C@@H](C)S(=O)(=O)NC(=O)c3ccc4c(c3)N(C[C@@H]3CCCN32)C[C@@]2(CCCc3cc(Cl)ccc32)CO4)C1` [Compound 42], in assay [1], the AC50 worked out at 463 nM. Also, the Ki in assay [2] worked out at 0.374 nM.
Take `C[C@@H]1[C@@H](C)C/C=C(\F)[C@H](C(=O)N2CCC(F)(F)CC2)N2CCC[C@H]2CN2C[C@@]3(CCCc4cc(Cl)ccc43)COc3ccc(cc32)C(=O)NS1(=O)=O` [Compound 43]: the AC50 in assay [1] came out at 399 nM. Moreover, the Ki in assay [2] amounted to 0.438 nM.

(Values after patent publication US20230219906A1, “MACROCYCLIC-2-AMINO-3-FLUORO-BUT-3-ENAMIDES AS INHIBITORS OF MCL-1” (Janssen Pharmaceutica NV, priority 2020, published 2023).)
